The results in this text go back to ChEMBL document CHEMBL1201862, “PubChem BioAssay data set” (2004).

Structures are written as SMILES.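 Cells were grown in 96-well plates and exposed to each compound for 48 hours at five concentrations; endpoints were interpolated linearly between bracketing concentrations, or set to the highest concentration if not reached. Abbreviation: GI50, concentration required for 50% inhibition of growth.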 Activity calls are given as the source filed them. Cut-off read from the data, not from the text of the source: active = GI50 up to about 1.1 µM and inactive = higher.

Test in all cases: growth of human tumour cells (NCI), 48 h
In assay [1] the test system is ACHN.
In assay [2] the test system is HCC 2998.
Assay [3] has as its system HOP-62.
Assay [4] relates to HOP-92.
For assay [5], the system named is IGROV-1.
Assay [6] relates to LOX IMVI.
Assay [7] has as its system M14.
The subject of assay [8] is MOLT-4.
Assay [9] relates to Malme-3M.
The subject of assay [10] is NCI-H226.
For assay [11], the system named is NCI-H460.
Assay [12] has as its system OVCAR-3.
Assay [13] relates to RXF 393.
The test system of assay [14] is SF-539.
Assay [15] has as its system SK-OV-3.
The test system of assay [16] is SN12C.
The test system of assay [17] is SNB-75.
Assay [18] concerns TK-10.
The test system of assay [19] is U-251.
Assay [20] concerns UO-31.

In the case of `CC1(C)CCc2cc3c(cc2O1)OCC1c2cc4c(cc2OC31)OCO4` (stereo not given), the GI50 in assay [1], in [2], in [3], in [4], in [5] and in [6] was > 100 µM (inactive) throughout. The GI50 in assay [7] was > 100 µM (inactive); in assay [8] it was > 100 µM (inactive); in [9], 32.7 µM (inactive); in assay [10] it was > 100 µM (inactive); in assay [11], 54.5 µM (inactive); in assay [12], > 100 µM (inactive). The GI50 in assay [13] is > 100 µM (inactive); in assay [14], > 100 µM (inactive); in assay [15] it was > 100 µM (inactive); in [16], > 100 µM (inactive); in [17], > 100 µM (inactive); in assay [18], 99.8 µM (inactive). Moreover, the GI50 in [19] and in assay [20] was > 100 µM (inactive) in each case.

For the compound `Oc1c(CN2CCOCC2)ccc2cccnc12`, the GI50 in assay [1], in [2], in assay [3], in assay [4], in assay [5] and in assay [6] was > 10 µM (inactive) in each case. The GI50 is > 10 µM (inactive) in assay [7]; 4.11 µM (inactive) in assay [8]; > 10 µM (inactive) in [9]; > 10 µM (inactive) in [10]; 4.63 µM (inactive) in assay [11]; > 10 µM (inactive) in assay [12]. The GI50 in [13], in assay [14], in assay [15], in [16], in assay [17] and in [18] was > 10 µM (inactive) throughout. Further, the GI50 in [19] was > 10 µM (inactive); in assay [20], 8.38 µM (inactive).

`CN(C)c1ccc(C(=N/N=C2\C(=O)Nc3ccccc32)c2ccc(N(C)C)cc2)cc1`: the GI50 in assay [1] was 1.04 µM (active); in assay [2], 0.643 µM (active); in [3] it was 0.933 µM (active); in assay [4], 12.8 µM (inactive); in assay [5] it was 0.303 µM (active); in assay [6] it was 0.748 µM (active). Further, the GI50 in assay [7] was 0.348 µM (active); in assay [8] it was 0.422 µM (active); in assay [9], 2.17 µM (inactive); in [10] it was 6.89 µM (inactive); in [11], 0.405 µM (active); in assay [12], 0.513 µM (active). For the same compound, the GI50 in assay [13] was 0.172 µM (active); in [14] it was 0.313 µM (active); in assay [15] it was 1.37 µM (inactive); in assay [16], 1.67 µM (inactive); in assay [17] it was 0.214 µM (active); in assay [18] it was 1.73 µM (inactive). Besides, the GI50 was 0.49 µM (active) in assay [19] and 2.01 µM (inactive) in assay [20].

For `CC(C)N(C(=O)C12C3C4C1C1C2C3C41C#N)C(C)C` (stereo not given), the GI50 in assay [1] was > 100 µM (inactive); in assay [2] it was > 100 µM (inactive); in [3] it was > 100 µM (inactive); in assay [4], > 100 µM (inactive); in assay [5] it was > 100 µM (inactive); in [6], > 47.1 µM (inactive). For the same compound, the GI50 in assay [7], in assay [8], in [9], in assay [10], in assay [11] and in assay [12] was > 100 µM (inactive) each time. Also, the GI50 was > 100 µM (inactive) in assay [13]; > 100 µM (inactive) in assay [14]; > 100 µM (inactive) in assay [15]; > 100 µM (inactive) in [16]; > 84.7 µM (inactive) in [17]; > 100 µM (inactive) in [18]. For the same compound, the GI50 in assay [19] and in assay [20] was > 100 µM (inactive) in each case.

Take `CC(C)(C)C#CI1OC(=O)c2ccccc21`: the GI50 in [1] is 2.9 µM (inactive); in assay [2] it was 9.53 µM (inactive); in [3], 10 µM (inactive); in assay [4], 1.72 µM (inactive); in assay [5] it was 3.47 µM (inactive); in assay [6] it was 1.09 µM (active). Further, the GI50 is 3.31 µM (inactive) in [7]; 1.02 µM (active) in [8]; 3.03 µM (inactive) in [9]; 4.63 µM (inactive) in assay [10]; 4.62 µM (inactive) in assay [11]; 2.99 µM (inactive) in assay [12]. The GI50 was 3.62 µM (inactive) in assay [13]; 2.82 µM (inactive) in assay [14]; 11.4 µM (inactive) in assay [15]; 5.2 µM (inactive) in assay [16]; 7.28 µM (inactive) in assay [17]; 3.86 µM (inactive) in assay [18]. Moreover, the GI50 in assay [19] was 4.84 µM (inactive); in [20] it was 4.41 µM (inactive).

Regarding `O=C1CC2C(=O)N(Cc3ccccc3)C1C=C2S(=O)(=O)c1ccccc1` (stereo not given), the GI50 in assay [1], in assay [2], in assay [3], in assay [4], in [5] and in assay [6] was > 100 µM (inactive) in each case. In addition, the GI50 in assay [7], in [8], in [9], in assay [10], in [11] and in [12] was > 100 µM (inactive) each time. Besides, the GI50 in [13], in assay [14], in assay [15], in [16], in [17] and in [18] was > 100 µM (inactive) each time. Also, the GI50 in [19] and in assay [20] was > 100 µM (inactive) throughout.

Take `Cc1cc(=O)oc2c(CNC(CC(C)C)C(=O)O)c(O)ccc12` (stereo not given): the GI50 in [1], in assay [2], in assay [3], in assay [4], in [5] and in [6] was > 100 µM (inactive) throughout. Besides, the GI50 in assay [7] was > 100 µM (inactive); in assay [8], > 100 µM (inactive); in [9], 87.5 µM (inactive); in assay [10], > 100 µM (inactive); in assay [11] it was > 100 µM (inactive); in assay [12], > 100 µM (inactive). For the same compound, the GI50 in assay [13] was > 100 µM (inactive); in assay [14] it was > 100 µM (inactive); in assay [15] it was > 100 µM (inactive); in [16], > 100 µM (inactive); in [17], 39.7 µM (inactive); in [18], > 100 µM (inactive). Also, the GI50 in assay [19] and in assay [20] was > 100 µM (inactive) in each case.
